# Reference: patent publication US20050130949A1, “Cyclic polyamine compounds for cancer therapy” (priority 2000, published 2005)
# What was measured:
# DuPro = assay: MTT assay, cell growth inhibition, DuPro; type: cell-based; settings: Homo sapiens, 144 h, 6 days with drug, read-out: ID50 DuPro
# Description: (§1) To assess the utility of the subject compounds in the treatment of neoplastic cell growth, the ability of the compounds to inhibit the in vitro growth characteristics of several commonly used cancer models were studied. The subject polyamines induce cell growth inhibitions in several cultured human prostate tumor cell lines such as LnCap, DuPro, and PC-3 as determined by the accepted MTT assay (Table 2) (Hansen, M. B. et al., “Re-examination and further development of a precise and rapid dye method for measuring cell growth/cell kill,” J. Immunol. Methods (1989)119(2):203-10). […] The results with the DuPro cell line are representative of the results with human prostate cell lines.
# (§2) For the data shown in Table 2, an accepted MTT assay protocol was used. A trypsinized cell suspension was diluted to seed 80 μl suspension containing 500 cells in each well of a 96 well microtiter plates and incubated overnight at 37° C. in a humidified incubator in 5% CO2. Twenty μl of appropriately diluted stock solution of each drug was added to the middle 8 columns of cell suspension in the microtiter plates. Each drug concentration was run in quadruplicate. Outer columns of the plates were used for buffer controls. Cells were incubated with the drug for 6 days at 37° C. in 5% CO2/H2O atmosphere. Twenty five μl of 5 mg/ml solution of 3-(4,5-dimethythiazol-2-yl)-2,5-diphenyl tetrazolium bromide (MTT) was added to each well and incubated for 4 hours at 37° C. in 5% CO2/H2O incubator. Cells were lysed by incubating overnight with 100 μl lysis buffer (500 ml of the lysis buffer containing: 100 g lauryl sulfate (SDS), 250 ml of N,N-dimethyl formamide in 2 ml of glacial acetic acid, pH 4.8). The color was monitored at room temperature at 570 nm in a E-max Precision Microplate Reader (Molecular Devices Corporation, Sunnyvale, Calif.) and data were analyzed using cell survival software supplied by Molecular Devices Corporation.
# PC-3 = assay: MTT assay, cell growth inhibition, PC-3; type: cell-based; settings: Homo sapiens, PC-3, 144 h, 6 days with drug, read-out: ID50 PC-3
# Description: as §1, §2
# LnCap = assay: MTT assay, cell growth inhibition, LnCap; type: cell-based; settings: Homo sapiens, 144 h, 6 days with drug, read-out: ID50 LnCap
# Description: as §1, §2
# DuPro cells = assay: Intracellular polyamine and analog levels by HPLC of dansylated extracts; type: cell-based, human
# Experimental: For data shown in Tables 3a and 3b, intracellular polyamine levels were determined using a standard protocol. About 0.5-1×10^6 cells were taken from harvested samples and centrifuged at 1000 rpm at 4° C. for 5 min. The cells were washed twice with chilled Dulbecco's isotonic phosphate buffer (pH 7.4) by centrifugation at 1000 rpm at 4° C. and resuspended in the same buffer. After the final centrifugation, the supernatant was decanted, and 250 μl of 8% sulfosalycilic acid was added to the cell pellet. The cells were then sonicated, and the mixture was kept at 4° C. for at least 1 h. After centrifugation at 8,000 g for 5 min, the supernatant was removed for analysis. An appropriate volume (50-100 μl) was fluorescence-labeled by derivatizing with dansyl chloride. Labeled polyamines were loaded onto a C-18 high-performance liquid chromatography column and separated by gradient elution with acetonitrile/water at 50° C. Peaks were detected and quantitated using a Shimadzu HPLC fluorescence monitor coupled with a Spectra-Physics peak integrator. Because polyamine levels vary with environmental conditions, control cultures were sampled for each experiment.
# [1] = inorganic phosphate released from 100 μM ATP in 24 hour, 37° C.
# Experimental: In a 96 well microtiter plate, the first two columns were routinely used for standard curve generation. For the standard curve, 40 μl of 0-70 μM phosphate buffer was used by serially diluting 1 mM NaH2PO4 solution in 1 N HCl. For ATP hydrolysis, the rest of the microtiter plate was equally divided into two sections to run two analogs at a time. Each section was divided into the appropriate number of columns to serially dilute each analog between 0-10 mM in 29 μl 2N HCl for the final concentration of 2 N HCl. Each drug concentration was run in quadruplicate. Equal volumes of 500 μM ATP solution (pH 7.5) were added to each well and the plates were incubated at 37° C. for appropriate lengths of time between 2-24 h. At the end of the incubation period, 160 μl of coloring agent (0.045% Malachite Green in water and 4.2% ammonium molybdate in 4 N HCl (3:1 v/v)) was added and the plates were incubated at 37° C. for another 30 mins. All plates were read at 595 nm using a Emax precision microplate reader (Molecular Device, San Jose, Calif.). A control plate containing analog solutions without ATP was created for each experiment. Control plate reading was subtracted from each experimental plate and all data was normalized to ATP hydrolysis at zero concentration of polyamine analog. The average and standard deviation for quadruplicate runs were plotted.
# [2] = 1 μM analog, Day 4 of Treatment
# [3] = 1 μM analog, Day 6 of Treatment
# [4] = 2 μM analog, Day 4 of Treatment
# [5] = 2 μM analog, Day 6 of Treatment
# [6] = 0.5 μM analog, Day 4 of Treatment
# [7] = 0.5 μM analog, Day 6 of Treatment
Structure (SMILES),IC50 (DuPro) [nM],IC50 (PC-3) [nM],IC50 (LnCap) [nM],Analog level (uptake) (DuPro cells; [2]) [nmoles/10^6 cells],Spm (spermine) level (DuPro cells; [2]) [nmoles/10^6 cells],Analog level (uptake) (DuPro cells; [3]) [nmoles/10^6 cells],Spm (spermine) level (DuPro cells; [3]) [nmoles/10^6 cells],Analog level (uptake) (DuPro cells; [4]) [nmoles/10^6 cells],Spm (spermine) level (DuPro cells; [4]) [nmoles/10^6 cells],Analog level (uptake) (DuPro cells; [5]) [nmoles/10^6 cells],Spm (spermine) level (DuPro cells; [5]) [nmoles/10^6 cells],Analog level (uptake) (DuPro cells; [6]) [nmoles/10^6 cells],Spm (spermine) level (DuPro cells; [6]) [nmoles/10^6 cells],Analog level (uptake) (DuPro cells; [7]) [nmoles/10^6 cells],Spm (spermine) level (DuPro cells; [7]) [nmoles/10^6 cells],other results
CCCCCCCCCCCCCC1CC(=O)NCCCNCCCCNCCCN1 (stereo not drawn) [SL-11174],830,600,2200,2.788,0.002,17.206,0.001,25.074,0.001,21.472,0.0021,–,–,–,–,–
CCCCCCCCCCCCCC1CC(=O)NCCCNCCCNCCCN1 (stereo not drawn) [SL-11197],580,500,2600,–,–,–,–,49.072,–,42.341,–,47.566,0.004,35.913,0.002,–
CCCCCCCCCCCCCC1CC(=O)NCCCNCCCCCNCCCN1 (stereo not drawn) [SL-11199],1200,1400,1500,–,–,–,–,17.198,–,10.241,–,26.959,0.002,26.841,0.003,Spd (spermidine) level (DuPro cells; [7]): 0.005 nmoles/10^6 cells
CCCCCCCCCCCCCC1CC(=O)NCCCNCCCNCCCNCCCN1 (stereo not drawn) [SL-11200],1400,1300,–,10.089,0.089,46.776,0.043,5.989,0.095,49.309,0.053,–,–,–,–,Put (putrescine) level (DuPro cells; [2]): 0.004 nmoles/10^6 cells; Spd (spermidine) level (DuPro cells; [2]): 0.029 nmoles/10^6 cells; Spd (spermidine) level (DuPro cells; [3]): 0.014 nmoles/10^6 cells; Put (putrescine) level (DuPro cells; [4]): 0.020 nmoles/10^6 cells; Spd (spermidine) level (DuPro cells; [4]): 0.027 nmoles/10^6 cells; Put (putrescine) level (DuPro cells; [5]): 0.011 nmoles/10^6 cells; Spd (spermidine) level (DuPro cells; [5]): 0.018 nmoles/10^6 cells
NCCCNCCCCNCCCN [spermine],–,–,–,–,–,–,–,–,–,–,–,–,–,–,–,hydrolysis of ATP [1]: lack of ATP hydrolysis
